Measurements: US20250059205A1, “Heterocyclic Compounds and Methods of Use” (AMGEN INC., priority 2021, published 2025)

Tests used:
[1] = target: His-tagged KRAS G12D protein (Homo sapiens, UniProt P01116, G12D); assay: KRAS G12D TR-FRET Assay; assay type: binding
[2] = target: GDP-bound KRAS protein (aa 1-169), containing both G12D and C118A amino acid substitutions (Homo sapiens, UniProt P01116, C118A/G12D); assay: KRAS G12D Coupled Nucleotide Exchange Assay; assay type: biochemical; details: 2 h compound pre-incubation
Sequence of GDP-bound KRAS protein (aa 1-169), containing both G12D and C118A amino acid substitutions (P01116 1-169 isoform P01116-2 G12D/C118A): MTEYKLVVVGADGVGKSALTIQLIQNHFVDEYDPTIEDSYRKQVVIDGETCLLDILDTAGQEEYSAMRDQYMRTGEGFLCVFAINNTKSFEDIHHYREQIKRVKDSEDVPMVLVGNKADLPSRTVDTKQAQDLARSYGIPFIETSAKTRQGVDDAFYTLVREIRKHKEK
Procedure: Following compound pre-incubation, purified SOS protein (aa 564-1049) and GTP (Roche 10106399001) were added to the assay wells and incubated for an additional 30 min. […] The assay plates were then read on a PerkinElmer EnVision Multilabel Reader, using AlphaScreen® technology, and data were analyzed using a 4-parameter logistic model to calculate IC50 values.

[3] = tested on: Phosphorylation of ERK1/2 in AsPC-1 cells; assay: Phospho-ERK1/2 MSD Assay (AsPC-1 cells); assay type: cell-based; details: Homo sapiens, ASPC1, 2 h, 2 hours treatment, read-out: p-ERK (AsPC-1 cells) IC50
In short: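 Read-out: MSD electrochemiluminescent detection of phosphorylated ERK1/2 in whole-cell lysates, fitted to a 4-parameter logistic curve for IC50. Prior to lysis, AsPC-1 cells (25,000 per well) received a 2 h compound dose-response at 37 °C.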

[4] = tested on: Phosphorylation of ERK1/2 in A-427 cells; assay: Phospho-ERK1/2 MSD Assay (A-427 cells); assay type: cell-based; details: Homo sapiens, A-427, 2 h, 2 h treatment, read-out: p-ERK (A427 cells) IC50
In short: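 ERK1/2 phosphorylation measured by Meso Scale whole-cell lysate assay after A-427 cells were exposed to a titration of compound for 2 h at 37 °C.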

Sequence of His-tagged KRAS G12D protein (P01116 1-188 isoform P01116-2 G12D): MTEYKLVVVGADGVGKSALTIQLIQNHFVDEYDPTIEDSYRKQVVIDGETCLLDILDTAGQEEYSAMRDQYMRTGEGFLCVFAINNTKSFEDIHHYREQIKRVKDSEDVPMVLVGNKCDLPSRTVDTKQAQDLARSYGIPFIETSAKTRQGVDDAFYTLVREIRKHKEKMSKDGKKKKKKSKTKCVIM

Compound	IC50 [1] [µM]	Avg 2 h Coupled Exchange IC50 [2] [µM]	IC50 [3] [µM]	IC50 [4] [µM]
CCc1c(F)ccc2cc(O)cc(-c3ccc4c(N5[C@@H]6CC[C@H]5CNC6)nc(OC[C@@]56CCCN5C[C@H](F)C6)nc4c3F)c12 [Example 146, 4-(4-((1R,5S)-3,8-diazabicyclo[3.2.1]octan-8-yl)-8-fluoro-2-(((2R,7aS)-2-fluorotetrahydro-1H-pyrrolizin-7a(5H)-yl)methoxy)quinazolin-7-yl)-5-ethyl-6-fluoronaphthalen-2-ol]	0.001	0.003	0.129	0.083
CCc1c(F)ccc2cc(O)cc(-c3c(F)cc4c(N5C[C@H]6CC[C@@H](C5)N6)nc(OC[C@H]5CCC(=O)N5)nc4c3F)c12 [Example 127, (5R)-5-(((4-((1R,5S)-3,8-diazabicyclo[3.2.1]octan-3-yl)-7-(8-ethyl-7-fluoro-3-hydroxynaphthalen-1-yl)-6,8-difluoroquinazolin-2-yl)oxy)methyl) pyrrolidin-2-one]	0.012	0.003	7.5	3.3
Oc1cc(-c2c(Cl)cc3c(N4C[C@H]5CC[C@@H](C4)N5)nc(OC[C@@]45CCCN4C[C@H](F)C5)nc3c2F)c2c(F)cccc2c1 [Example 137, 4-(4-((1R,5S)-3,8-diazabicyclo[3.2.1]octan-3-yl)-6-chloro-8-fluoro-2-(((2R,7aS)-2-fluorotetrahydro-1H-pyrrolizin-7a(5H)-yl)methoxy)quinazolin-7-yl)-5-fluoronaphthalen-2-ol]	0.037	0.034	1.71	0.411
Oc1cc(-c2ccc3c(N4[C@@H]5CC[C@H]4CNC5)nc(OC[C@@]45CCCN4C[C@H](F)C5)nc3c2)c2ccccc2c1 [Example 11, 4-(4-((1R,5S)-3,8-diazabicyclo[3.2. 1]octan-8-yl)-2-(((2R,7aS)-2-fluorotetrahydro-1H-pyrrolizin-7a(5H)-yl)methoxy)quinazolin-7-yl)naphthalen-2-ol]	0.021	0.009	1.53	2.51
Cc1c(Cl)cc2[nH]ncc2c1-c1c(F)cc2c(N3C[C@H]4CC[C@@H](C3)N4)nc(OC[C@@]34CCCN3C[C@H](F)C4)nc2c1F [Example 74, 4-((1R,5S)-3,8-diazabicyclo[3.2. 1]octan-3-yl)-7-(6-chloro-5-methyl-1H-indazol-4-yl)-6,8-difluoro-2-(((2R,7aS)-2-fluorotetrahydro-1H-pyrrolizin-7a(5H)-yl)methoxy) quinazoline]	0.007	0.007	0.386	0.148
Oc1cc(-c2ccc3c(N4C[C@H]5CC[C@@H](C4)N5)nc(OC[C@@]45CCCN4C[C@H](F)C5)nc3c2F)c2ccccc2c1 [Example 46, 4-(4-((1R,5S)-3,8-diazabicyclo[3.2. 1]octan-3-yl)-8-fluoro-2-(((2R,7aS)-2-fluorotetrahydro-1H-pyrrolizin-7a(5H)-yl)methoxy)quinazolin-7-yl)naphthalen-2-ol]	0.002	0.002	0.039	0.006
CCc1cccc2cc(O)cc(-c3ccc4c(N5C[C@@H]6CC[C@H]5CN6)nc(OC[C@@]56CCCN5C[C@H](F)C6)nc4c3F)c12 [Example 110, 4-(4-((1S,4S)-2,5-diazabicyclo[2.2.2]octan-2-yl)-8-fluoro-2-(((2R,7aS)-2-fluorotetrahydro-1H-pyrrolizin-7a(5H)-yl)methoxy)quinazolin-7-yl)-5-ethylnaphthalen-2-ol]	0.004	0.003	0.026	0.01
CCc1c(F)ccc2cc(O)cc(-c3ccc4c(N5C[C@H]6CC[C@@H](C5)N6)nc(OCC5(O)CCCC5)nc4c3F)c12 [Example 133, 4-(4-((1R,5S)-3,8-diazabicyclo[3.2.1]octan-3-yl)-8-fluoro-2-((1-hydroxycyclopentyl)methoxy)quinazolin-7-yl)-5-ethyl-6-fluoronaphthalen-2-ol]	0.007	0.006	2.04	2.43
CCc1c(F)ccc2cc(O)cc(-c3c(F)cc4c(N5C[C@H]6CCC[C@@H](C5)N6)nc(OC[C@@]56CCCN5C[C@H](F)C6)nc4c3F)c12 [Example 119, 4-(4-((1R,5S)-3,9-diazabicyclo[3.3.1]nonan-3-yl)-6,8-difluoro-2-(((2R,7aS)-2-fluorotetrahydro-1H-pyrrolizin-7a(5H)-yl)methoxy)quinazolin-7-yl)-5-ethyl-6-fluoronaphthalen-2-ol]	0.005	0.004	0.276	0.156
CCc1c(F)ccc2cc(O)cc(-c3ccc4c(N5C[C@@H]6CC[C@H]5CN6)nc(OC[C@@]56CCCN5C[C@H](F)C6)nc4c3C)c12 [Example 92, 4-(4-((1S,4S)-2,5-diazabicyclo[2.2. 2]octan-2-yl)-2-(((2R,7aS)-2-fluorotetrahydro-1H-pyrrolizin-7a(5H)-yl)methoxy)-8-methylquinazolin-7-yl)-5-ethyl-6-fluoronaphthalen-2-ol]	0.024	0.033	0.829	0.88
Cc1ccc2[nH]nc(N)c2c1-c1ccc2c(N3C[C@H]4CC[C@@H](C3)N4)nc(OC[C@@]34CCCN3C[C@H](F)C4)nc2c1F [Example 226, 4-(4-((1R,5S)-3,8-diazabicyclo[3.2.1]octan-3-yl)-8-fluoro-2-(((2R,7aS)-2-fluorotetrahydro-1H-pyrrolizin-7a(5H)-yl)methoxy)quinazolin-7-yl)-5-methyl-1H-indazol-3-amine]	0.044	0.007	> 10	> 10
Fc1c(-c2cc(Cl)cc3ccccc23)c(Cl)cc2c(N3C[C@H]4CC[C@@H](C3)N4)nc(OC[C@@]34CCCN3C[C@H](F)C4)nc12 [Example 78, 4-((1R,5S)-3,8-diazabicyclo[3.2. 1]octan-3-yl)-6-chloro-7-(3-chloronaphthalen-1-yl)-8-fluoro-2-(((2R,7aS)-2-fluorotetrahydro-1H-pyrrolizin-7a(5H)-yl)methoxy) quinazoline]	0.226	0.090	6.03	> 10
Nc1cc(Cl)c(C(F)(F)F)c(-c2ccc3c(N4C[C@H]5CC[C@@H](C4)N5)nc(OC[C@@]45CCCN4C[C@H](F)C5)nc3c2F)n1 [Example 228, 6-(4-((1R,5S)-3,8-Diazabicyclo[3.2.1]octan-3-yl)-8-fluoro-2-(((2R,7aS)-2-fluorotetrahydro-1H-pyrrolizin-7a(5H)-yl)methoxy)quinazolin-7-yl)-4-chloro-5-(trifluoromethyl)pyridin-2-amine]	0.002	0.002	0.302	0.077
Cc1c(Cl)cc2[nH]ncc2c1-c1ccc2c(N3[C@@H]4CC[C@H]3CNC4)nc(OC[C@@]34CCCN3C[C@H](F)C4)nc2c1 [Example 38, 4-((1R,5S)-3,8-diazabicyclo[3.2. 1]octan-8-yl)-7-(6-chloro-5-methyl-1H-indazol-4-yl)-2-(((2R,7aS)-2-fluorotetrahydro-1H-pyrrolizin-7a(5H)-yl)methoxy) quinazoline]	0.195	0.042	6.31	> 10
